Results taken from article PMC3723855, “R31C GNRH1 Mutation and Congenital Hypogonadotropic Hypogonadism” (PLoS ONE, 2013).
“Also recorded” adds a separate entry of the source.

Legend:
human GnRH-R [1] = target: T1, human GnRH-R (Homo sapiens, UniProt P30968); experiment: Competition radioligand binding, 125I-[His5, D-Tyr6]-GnRH, transfected COS-7 cells
T1 sequence (P30968 1-328): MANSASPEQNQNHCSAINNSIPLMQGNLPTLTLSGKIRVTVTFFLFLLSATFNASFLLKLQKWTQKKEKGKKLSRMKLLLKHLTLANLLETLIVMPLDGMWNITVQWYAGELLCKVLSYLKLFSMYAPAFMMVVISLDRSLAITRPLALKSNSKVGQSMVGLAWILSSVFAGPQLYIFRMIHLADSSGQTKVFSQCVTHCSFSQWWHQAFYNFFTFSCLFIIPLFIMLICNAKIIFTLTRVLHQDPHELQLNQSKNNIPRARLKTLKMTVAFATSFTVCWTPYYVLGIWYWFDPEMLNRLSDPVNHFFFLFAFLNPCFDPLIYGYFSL
Description: Figure 2 Binding of WT and R31C GnRH to the GnRH receptor (GnRH-R). […] Data are the means of two experiments performed in triplicate.
The high affinity GnRH analog, [His^5, D-Tyr^6]-GnRH was radio-iodinated as previously described and purified using Sephadex chromatography. COS-7 cells were transiently transfected with a human GnRH-R DNA construct containing the human GnRH-RII carboxy-terminal to enhance expression using 6 µg of DNA and 30 µl FuGene HD (Promega Corporation, Madison, WI) per 10 cm dish and seeded into 12-well plates. […] Cells were washed with phosphate-buffered saline (2×1 ml) and lysed with NaOH (1 ml, 0.1 M). Cell-bound radioactivity was counted in a gamma counter and IC-50 values were calculated using Graphpad Prism (GraphPad Software Inc, San Diego).

[2] = Peptide stability in solution, LC-MS/MS
Description: LC-MS/MS was performed with Quattro-LCZ triple quadrupole mass spectrometer equipped with the orthogonal electrospray source (Micromass, Manchester, UK) to analyze peptides stability in solution. Peptides solutions (water and cell culture medium) were incubated 24-h at room temperature for these stability studies.
Peptides were measured in aqueous solution at pH 7 and starved overnight at 37°C.

ERK1/2 (LbetaT2 cells) = experiment: ERK1/2 phosphorylation Western blot in LbetaT2 cells; assay type: cell-based, murine
Description: Figure 4 ERK1/2 phosphorylation by Western blot. (A) LbetaT2 cells were starved overnight in serum-free DMEM and then treated by 10 nM WT, 10 nM R31C, 10 nM WT +10 nM R31C peptides or vehicle for 0, 5, 10 and 30 minutes. Representative of four experiments. […] Lysates were analyzed by Western Blotting using phospho-ERK1/2 antibodies (Cell Signaling®, open arrow) and mouse monoclonal anti alpha-tubulin (Sigma Aldrich®, St. Louis, MO, close arrow). Similar results on ERK intensity and kinetics were obtained using transiently transfected HEK293T cells.
LbetaT2 cells were starved 18 h in serum-free DMEM before treatments, then exposed to 10 nM of WT, 10 nM of R31C, the combination of 10 nM of each peptide or vehicle. Cells were harvested at 0, 5, 10, 15 and 30 minutes after treatment. Western blotting analyses were performed as previously described.

human GnRH-R [3] = target: T1, human GnRH-R; experiment: Inositol phosphate (IP) accumulation in COS-7 cells transfected with human GnRH-R; assay type: cell-based; parameters: host or cells: COS-7
Description: Figure 6 IP accumulation. (A) COS-7 cells were transiently transfected with human GnRH-R expression vector and washed before the addition of myo-[2-^3H]Inositol. […] This experience was conducted three times each in triplicate. (B) Representation of individual values of EC-50 (calculated with Arcsin “P” root transformation) from n = 3 dose-response experiments.
COS-7 cells were transiently transfected by electroporation with human GnRH-R DNA (10 µg/15 cm dish), seeded into 12-well plates and radiolabelled by overnight incubation with myo-[3H]Inositol (0.5 µCi/well, American Radiolabeled Chemicals, St Louis, Mo). […] Incubations were stopped by removal of the medium and cells were lysed by addition of formic acid (1 ml, 10 mM). IP were extracted from cell lysates using Dowex 1 X8-200 chromatography and counted using a liquid scintillation counter (Pack ard). EC-50 and Emax values were calculated using Graphpad Prism (GraphPad Software Inc).

lhb (LbetaT2 cells) = experiment: lhb transcription (RT-qPCR) in LbetaT2 cells; assay type: cell-based, mouse; settings: for lhb transcription versus WT GnRH: 10 nM R31C; for lhb transcript levels: 10 nM, n = 7 in duplicates, p<0.01 for WT, not significant for R31C
Description: Figure 7 Effects of treatments on lhb transcription and LH secretion. […] After five hours treatment cells were lysed for RNA extraction (Trizol®). Mouse lhb levels were analyzed by quantitative real time RT-qPCR. Values are expressed as individual ratios on 18S and represented as fold induction on vehicle as means ± SEM, **p<0.01. This experience was conducted n = 7 times in duplicates. (B) LH concentrations from LbetaT2 cells culture media. Cells were starved overnight in serum-free DMEM and incubated with 10 nM WT, 10 nM R31C, 10 nM WT +10 nM R31C, or vehicle for 5 hours. LH levels were measured by a combined rat/mouse RIA. Values are expressed as individual values and as means ± SEM, *p<0.05, ***p<0.001. The experiment was conducted four times and each sample was assayed in duplicates.
LbetaT2 cells were grown at 10^6/well in 6-well plates and starved in serum-free DMEM 18 h before tests. […]
Lhb (murine LH beta subunit) transcript was quantified by real-time RT-PCR, using an ABI Step One Sequence Detector (Applied Biosystem, Foster City, CA) as previously described.

GNRHR = experiment: SRE-coupled luciferase after pulsatile exposure (four 90 min-spaced pulses), HEK293T cells; assay type: cell-based, human; settings: 5 minutes each, 10 nM WT, 10 nM R31C or 10+10 nM, harvested five hours after last pulse, three experiments, n = 8 replicates
Description: Supplementary file pone.0069616.s002.ppt: Figure S2 Luciferase activity after pulsatile exposure. HEK293T cells were transiently transfected with GNRHR and SRE-coupled luciferase reporter gene, and then exposed to four 90 min-spaced pulses of 10 nM WT, 10 nM […] and 10+10 nM WT+[…]. After 5 minutes exposure to each ligand, cells were washed, and a subsequent pulse was given 90 minutes after. Five hours after the last pulse, cells were harvested for luciferase assay. Luciferase activity arbitrary units obtained by luminometry (a.l.u.) are shown as ratio on beta-galactosidase activity by optical density (used as transfection efficiency internal control). This experience was conducted three times (n = 8 replicates for each experiment). (PPT) Click here for additional data file.

[4] = R31C 10^−10 M to 10^−6 M in combination with WT GnRH at 10^−9 M
[5] = aqueous solution at pH 7, overnight at 37°C, mass spectrometry-coupled electrospray (Fig. S1)

With CC(C)C[C@H](NC(=O)CNC(=O)[C@H](Cc1ccc(O)cc1)NC(=O)[C@H](CO)NC(=O)[C@H](Cc1c[nH]c2ccccc12)NC(=O)[C@H](Cc1c[nH]cn1)NC(=O)[C@@H]1CCC(=O)N1)C(=O)N[C@@H](CS)C(=O)N1CCC[C@H]1C(=O)NCC(N)=O [R31C GnRH] the IC50 (human GnRH-R [1]; COS-7 transfected with human GnRH-R construct, 125I-[His5, D-Tyr6]-GnRH, 4 h, 4°C, two experiments performed in duplicate) was 850 nM, the “impact of added R31C GnRH on receptor binding with WT GnRH” value (human GnRH-R [1]; [4]) was “failed to have any impact” and the “activity in receptor binding” value (human GnRH-R [1]; R31C GnRH) was “very low activity”. For the same compound, the “affinity for GnRH-R lower than that of WT GnRH” value (human GnRH-R [1]; R31C GnRH versus WT GnRH, COS-7 cells) was “more than 100 fold”, the dimerization ([2]; 24 h, room temperature, water and culture medium, LC-MS/MS) was “No dimerization” and the “formation of R31C dimers” value [2, 5] was “absent”. For the same compound, the “formation of smaller fragments” value [2, 5] was “negligible”, the “stability over 24-hours” value ([2]; culture medium, room temperature, 24 h, LC-MS/MS) was “stable” and the “stability over 24-hours” value ([2]; water, room temperature, 24 h, LC-MS/MS) was “stable”. For the same compound, the “ERK1/2 phosphorylation versus WT GnRH” value (ERK1/2 (LbetaT2 cells); 10 nM, LbetaT2 cells, four experiments) was “very low activity”, the “ERK1/2 phosphorylation versus WT GnRH” value (ERK1/2 (LbetaT2 cells); 10 nM, LbetaT2 cells, four experiments, listed as R31C peptide) was “weaker responses” and the “effect of increasing R31C dose on ERK1/2 phosphorylation by WT GnRH” value (ERK1/2 (LbetaT2 cells); R31C from 10 nM to 300 nM with 10 nM WT GnRH, 5 minutes exposure) was “did not reduce ERK1/2 phosphorylation”. For the same compound, the “maximal IP / agonism” value (human GnRH-R [3]; COS-7, R31C compared with WT) was “full agonist; also recorded: maximal IP generated by both ligands was the same; also recorded: able to elicit the same maximal stimulation”, the EC50 (human GnRH-R [3]; COS-7, human GnRH-R, 1 hour, n = 3 dose-response experiments each in triplicate, Arcsin "P" root transformation, spread not defined, read-out: EC-50, IP accumulation (Fig. 6B)) was 199 ± 75.9 nM and the “impact of added R31C GnRH on IP generation with WT GnRH” value (human GnRH-R [3]; [4]) was “failed to have any impact”. The “IP activity / potency” value (human GnRH-R [3]; R31C GnRH versus WT) was “very low activity”, the “less potent than WT GnRH, IP accumulation” value (human GnRH-R [3]; R31C GnRH versus WT GnRH, p<0.01) was over 100 fold and the “lhb transcription versus WT GnRH” value (lhb (LbetaT2 cells); 5 hours) was “very low activity”. For the same compound, the “lhb transcription versus WT GnRH” value (lhb (LbetaT2 cells); 5 hours, listed as R31C peptide) was “weaker responses”, the “influence of R31C GnRH on stimulation of lhb transcription by WT GnRH” value (lhb (LbetaT2 cells); 10 nM WT + 10 nM R31C, 5 hours) was “unable to influence the stimulation of lhb transcription” and the lhb transcript levels (lhb (LbetaT2 cells); 5 hours) was “did not significantly increase these levels over baseline”. The “impact of added R31C GnRH on lhb transcription with WT GnRH” value (lhb (LbetaT2 cells); [4]) was “failed to have any impact”.

With CC(C)C[C@H](NC(=O)CNC(=O)[C@H](Cc1ccc(O)cc1)NC(=O)[C@H](CO)NC(=O)[C@H](Cc1c[nH]c2ccccc12)NC(=O)[C@H](Cc1c[nH]cn1)NC(=O)[C@@H]1CCC(=O)N1)C(=O)N[C@@H](CCCNC(=N)N)C(=O)N1CCC[C@H]1C(=O)NCC(N)=O [WT GnRH, reference compound] the “luciferase activity after pulsatile administration” value (GNRHR) was “more potent than R31C GnRH”, the “formation of smaller fragments” value [2, 5] was “absent” and the “time of maximal ERK1/2 phosphorylation” value (ERK1/2 (LbetaT2 cells); 10 nM, LbetaT2 cells, 0-30 minutes, four experiments) was 5 min. For the same compound, the lhb transcript levels (lhb (LbetaT2 cells); 5 hours) was “significantly increased lhb transcript levels”.
